Earlier results as cited in PubChem BioAssay AID1259409 (Chemical Carcinogenesis Research Information System (CCRIS), 2018).

Tested on: rodent chemically induced tumor inhibition, incidence and multiplicity
Assay: CCRIS tumor inhibitor studies
From the text: The CCRIS database contains chemical records with carcinogenicity, mutagenicity, tumor promotion, and tumor inhibition test results. It was developed by the National Cancer Institute (NCI). Data are derived from studies cited in primary journals, current awareness tools, NCI reports, and other sources. Test results have been reviewed by experts in carcinogenesis and mutagenesis.
CCRIS provides historical information from the years 1985 - 2011. It is no longer updated.
This is an archive assay for CCRIS tumor inhibitor studies.

In the case of `C[n+]1ccc(-c2cc[n+](C)cc2)cc1`, the “tumour outcome (control, treated, inhibition, significance)” value (Carcinogen: 7,12-DIMETHYLBENZ[A]ANTHRACENE, 57-97-6, Dose [Inhibitor]: 0, 26 MG/KG BW 1/WK FOR 4 WK BEGINNING POST CARCINOGEN DOSE (STUDY DURATION: 4 MO), Route [Inhibitor]: SUBCUTANEOUS, Species: MOUSE, Strain/Sex: ICR/FEMALE, Target Tissue: Type of Lesion: LUNG: TUMOR, Dose [Carcinogen]: 1 MG/KG BW ONCE ADMINISTERED TO NEONATAL MICE, Promoter: NONE USED) is listed as 4/10 (40%), 2/9 (22%), 45%, not calculated, the “tumour outcome (control, treated, inhibition, significance)” value (Carcinogen: 7,12-DIMETHYLBENZ[A]ANTHRACENE, 57-97-6, Dose [Inhibitor]: 0, 26 MG/KG BW 1/WK FOR 4 WK BEGINNING POST CARCINOGEN DOSE (STUDY DURATION: 4 MO), Route [Inhibitor]: SUBCUTANEOUS, Species: MOUSE, Strain/Sex: ICR/FEMALE, Target Tissue: Type of Lesion: LUNG: TUMOR, Dose [Carcinogen]: 10 MG/KG BW ONCE ADMINISTERED TO NEONATAL MICE, Promoter: NONE USED) is listed as 9/11 (82%), 4/7 (57%), 30%, not calculated and the “tumour outcome (control, treated, inhibition, significance)” value (Carcinogen: 7,12-DIMETHYLBENZ[A]ANTHRACENE, 57-97-6, Dose [Inhibitor]: 0, 26 MG/KG BW 1/WK FOR 4 WK BEGINNING POST CARCINOGEN DOSE (STUDY DURATION: 4 MO), Route [Inhibitor]: SUBCUTANEOUS, Species: MOUSE, Strain/Sex: ICR/MALE, Target Tissue: Type of Lesion: LUNG: TUMOR, Dose [Carcinogen]: 1 MG/KG BW ONCE ADMINISTERED TO NEONATAL MICE, Promoter: NONE USED) is listed as 2/10 (20%), 0/9 (0%), 100%, not calculated. For the same compound, the “tumour outcome (control, treated, inhibition, significance)” value (Carcinogen: 7,12-DIMETHYLBENZ[A]ANTHRACENE, 57-97-6, Dose [Inhibitor]: 0, 26 MG/KG BW 1/WK FOR 4 WK BEGINNING POST CARCINOGEN DOSE (STUDY DURATION: 4 MO), Route [Inhibitor]: SUBCUTANEOUS, Species: MOUSE, Strain/Sex: ICR/MALE, Target Tissue: Type of Lesion: LUNG: TUMOR, Dose [Carcinogen]: 10 MG/KG BW ONCE ADMINISTERED TO NEONATAL MICE, Promoter: NONE USED) was 9/11 (82%), 4/9 (44%), 46%, not calculated, the “tumour outcome (control, treated, inhibition, significance)” value (Carcinogen: 7,12-DIMETHYLBENZ[A]ANTHRACENE, 57-97-6, Dose [Inhibitor]: 0, 26 MG/KG BW 1/WK FOR 4 WK BEGINNING POST CARCINOGEN DOSE (STUDY DURATION: 6 MO), Route [Inhibitor]: SUBCUTANEOUS, Species: MOUSE, Strain/Sex: ICR/MALE, Target Tissue: Type of Lesion: LIVER: TUMOR, Dose [Carcinogen]: 10 MG/KG BW ONCE ADMINISTERED TO NEONATAL MICE, Promoter: NONE USED) was 4/11 (36%), 2/17 (12%), 67%, not calculated and the “tumour outcome (control, treated, inhibition, significance)” value (Carcinogen: 7,12-DIMETHYLBENZ[A]ANTHRACENE, 57-97-6, Dose [Inhibitor]: 0, 26 MG/KG BW 1/WK FOR 4 WK BEGINNING POST CARCINOGEN DOSE (STUDY DURATION: 6 MO), Route [Inhibitor]: SUBCUTANEOUS, Species: MOUSE, Strain/Sex: ICR/MALE, Target Tissue: Type of Lesion: LUNG: TUMOR, Dose [Carcinogen]: 1 MG/KG BW ONCE ADMINISTERED TO NEONATAL MICE, Promoter: NONE USED) was 3/10 (30%), 1/9 (11%), 63%, not calculated. For the same compound, the “tumour outcome (control, treated, inhibition, significance)” value (Carcinogen: 7,12-DIMETHYLBENZ[A]ANTHRACENE, 57-97-6, Dose [Inhibitor]: 0, 26 MG/KG BW 1/WK FOR 4 WK BEGINNING POST CARCINOGEN DOSE (STUDY DURATION: 6 MO), Route [Inhibitor]: SUBCUTANEOUS, Species: MOUSE, Strain/Sex: ICR/MALE, Target Tissue: Type of Lesion: LUNG: TUMOR, Dose [Carcinogen]: 10 MG/KG BW ONCE ADMINISTERED TO NEONATAL MICE, Promoter: NONE USED) was 9/11 (82%), 13/17 (76%), 7%, not calculated.
In the case of `O=C1OCc2ccccc21`, the “tumour outcome (control, treated, inhibition, significance)” value (Carcinogen: BENZO[A]PYRENE, 50-32-8, Dose [Inhibitor]: 0.034 MMOL/G IN DIET BEGINNING 1 WK PRIOR TO FIRST CARCINOGEN DOSE AND CONTINUING FOR 3 D POST LAST CARCINOGEN DOSE (STU, Route [Inhibitor]: ORAL, Species: MOUSE, Strain/Sex: ICR/FEMALE, Target Tissue: Type of Lesion: FORESTOMACH: TUMOR, Dose [Carcinogen]: 1 MG IN 0.2 ML CORN OIL 2/WK FOR 4 WK, Promoter: NONE USED) is given as 95%, 95%, 0%, not significant.
For `CC[C@H]1OC(=O)[C@H](C)[C@@H](O[C@H]2C[C@@](C)(OC)[C@@H](O)[C@H](C)O2)[C@H](C)[C@@H](O[C@@H]2O[C@H](C)C[C@H](N(C)C)[C@H]2O)[C@](C)(OC)C[C@@H](C)C(=O)[C@H](C)[C@@H](O)[C@]1(C)O`, the “tumour outcome (control, treated, inhibition, significance)” value (Carcinogen: N-NITROSOBIS(2-HYDROXYPROPYL)AMINE, 53609-64-6, Dose [Inhibitor]: 0, 0.02% IN DIET FOR 8 WK BEGINNING POST CARCINOGEN TREATMENT (STUDY DURATION: 20 WK), Route [Inhibitor]: ORAL, Species: RAT, Strain/Sex: WISTAR/MALE, Target Tissue: Type of Lesion: LUNG: ADENOCARCINOMA, Dose [Carcinogen]: 2,000 PPM IN DRINKING WATER FOR 12 WK, Promoter: NONE) is listed as 60%, 38%, 37%, not calculated, the “tumour outcome (control, treated, inhibition, significance)” value (Carcinogen: N-NITROSOBIS(2-HYDROXYPROPYL)AMINE, 53609-64-6, Dose [Inhibitor]: 0, 0.02% IN DIET FOR 8 WK BEGINNING POST CARCINOGEN TREATMENT (STUDY DURATION: 20 WK), Route [Inhibitor]: ORAL, Species: RAT, Strain/Sex: WISTAR/MALE, Target Tissue: Type of Lesion: LUNG: ADENOMA, Dose [Carcinogen]: 2,000 PPM IN DRINKING WATER FOR 12 WK, Promoter: NONE) is listed as 70%, 50%, 29%, not calculated and the “tumour outcome (control, treated, inhibition, significance)” value (Carcinogen: N-NITROSOBIS(2-HYDROXYPROPYL)AMINE, 53609-64-6, Dose [Inhibitor]: 0, 0.02% IN DIET FOR 8 WK BEGINNING POST CARCINOGEN TREATMENT (STUDY DURATION: 20 WK), Route [Inhibitor]: ORAL, Species: RAT, Strain/Sex: WISTAR/MALE, Target Tissue: Type of Lesion: LUNG: SQUAMOUS CELL CARCINOMA, Dose [Carcinogen]: 2,000 PPM IN DRINKING WATER FOR 12 WK, Promoter: NONE) is listed as 20%, 13%, 35%, not calculated.
In the case of `COc1cc(C[C@@H](CO)[C@H](CO)Cc2ccc(O)c(OC)c2)ccc1O`, the “tumour outcome (control, treated, inhibition, significance)” value (Carcinogen: 7,12-DIMETHYLBENZ[A]ANTHRACENE, 57-97-6, Dose [Inhibitor]: 0, 1.5 MG IN 1 ML OF DISTILLED WATER 1/D FOR 20 WK BEGINNING 1 WK POST CARCINOGEN DOSE (STUDY DURATION: 21 WK), Route [Inhibitor]: GAVAGE, Species: RAT, Strain/Sex: SPRAGUE-DAWLEY/FEMALE, Target Tissue: Type of Lesion: MAMMARY GLAND: TUMOR, Dose [Carcinogen]: 5 MG IN 1 ML CORN OIL ONCE, Promoter: NONE USED) is given as 26/30 (87%), 23/30 (77%), 11%, not significant.
In the case of `CCCCNC(=O)\C=C(C)/C=C/C=C(C)/C=C/C1=C(C)CCCC1(C)C`, the “tumour outcome (control, treated, inhibition, significance)” value (Carcinogen: N-BUTYL-N-(4-HYDROXYBUTYL)NITROSAMINE, 3817-11-6, Dose [Inhibitor]: 1.5 MMOL/KG IN DIET FOR 133 D STARTING 1 WK AFTER THE LAST CARCINOGEN DOSE ( STUDY DURATION: 190 D), Route [Inhibitor]: ORAL, Species: MOUSE, Strain/Sex: BDF/MALE, Target Tissue: Type of Lesion: URINARY BLADDER: TRANSITIONAL CELL CARCINOMA, Dose [Carcinogen]: 7.5 MG 1/WK FOR 8 WK, Promoter: NONE USED) is listed as 21/100 (21%), 19/97 (20%), 5%, not significant.
